# Laboratory results reported in patent publication US7208178B2, “Polymorphs of sodium 4-[(4-chloro-2-hydroxybenzoyl) amino] butanoate” (Emisphere Technologies, Inc., priority 2000, dated 2007).
# Experiment: Solid-state stability of amorphous form at ambient conditions
# Type: physicochemical
# Conditions: amorphous form prepared by solidification, from solution or lyophilization
smiles,measurement,value
"O=C(O)CCCNC(=O)c1ccc(Cl)cc1O [amorphous form, sodium 4-[(4-chloro-2-hydroxybenzoyl)amino]butanoate]",stability at ambient conditions,unstable at ambient conditions and transforms to Form II
